Reference: paper PMC11956017, “Design of Benzyl-triazolopyrimidine-Based NADPH Oxidase Inhibitors Leads to the Discovery of a Potent Dual Covalent NOX2/MAOB Inhibitor” (Journal of Medicinal Chemistry, 2025)
Entries after “also recorded” stand apart in the source; their conditions may differ.

Legend:
human MAOB = target: T1, human MAOB (Homo sapiens, UniProt P27338); assay: Purified MAOB, Amplex Red/horseradish peroxidase coupled assay; format: biochemical; conditions: for IC50 / IC50 Purified MAOB: 10 nM MAOB, 1 mM benzylamine
T1 construct: made in house; host or cells: Pichia pastoris
T1 sequence (P27338 1-520): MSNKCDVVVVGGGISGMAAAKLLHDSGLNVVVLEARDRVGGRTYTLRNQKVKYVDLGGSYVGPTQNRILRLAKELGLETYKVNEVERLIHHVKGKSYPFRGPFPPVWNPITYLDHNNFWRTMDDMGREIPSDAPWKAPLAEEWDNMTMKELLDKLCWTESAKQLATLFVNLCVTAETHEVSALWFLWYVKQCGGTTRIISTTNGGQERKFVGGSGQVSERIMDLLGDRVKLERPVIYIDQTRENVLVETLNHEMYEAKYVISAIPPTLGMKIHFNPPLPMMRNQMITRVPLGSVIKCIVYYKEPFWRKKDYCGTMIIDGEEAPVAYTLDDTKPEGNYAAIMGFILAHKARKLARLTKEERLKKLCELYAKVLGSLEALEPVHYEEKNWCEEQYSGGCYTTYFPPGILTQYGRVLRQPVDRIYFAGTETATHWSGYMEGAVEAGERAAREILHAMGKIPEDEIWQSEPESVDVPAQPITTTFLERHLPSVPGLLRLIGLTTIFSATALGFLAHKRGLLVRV
Experimental: (§1) IC50 values on human MAOA and human MAOB were determined using the Amplex Red/horseradish peroxidase coupled assay. […] Measurements were performed using a ClarioStar plate reader (excitation 572 nm and emission 583 nm) (BMG Labtech). IC50 values were obtained by fitting the percentage of inhibition versus log(inhibitor concentration) using GraphPad software 7.0. The covalent modification of the flavin upon the reaction with the propargylamine-containing inhibitors was monitored spectrophotometrically using a diode array UV/visible spectrophotometer (Agilent Technologies). […] The cofactor covalent modification was monitored over time following the shift of the enzyme-bound flavin (peaks at 370 and 456 nm) to 410 nm (ε410 = 23,500 M^–1 cm^–1) (Figure S10).

human MAOA = target: T2, human MAOA (Homo sapiens, UniProt P21397); assay: Purified MAOA, Amplex Red/horseradish peroxidase coupled assay; format: biochemical; conditions: 70 nM MAOA, 1 mM kynuramine
T2 construct: made in house; host or cells: Pichia pastoris
T2 sequence (P21397 1-527): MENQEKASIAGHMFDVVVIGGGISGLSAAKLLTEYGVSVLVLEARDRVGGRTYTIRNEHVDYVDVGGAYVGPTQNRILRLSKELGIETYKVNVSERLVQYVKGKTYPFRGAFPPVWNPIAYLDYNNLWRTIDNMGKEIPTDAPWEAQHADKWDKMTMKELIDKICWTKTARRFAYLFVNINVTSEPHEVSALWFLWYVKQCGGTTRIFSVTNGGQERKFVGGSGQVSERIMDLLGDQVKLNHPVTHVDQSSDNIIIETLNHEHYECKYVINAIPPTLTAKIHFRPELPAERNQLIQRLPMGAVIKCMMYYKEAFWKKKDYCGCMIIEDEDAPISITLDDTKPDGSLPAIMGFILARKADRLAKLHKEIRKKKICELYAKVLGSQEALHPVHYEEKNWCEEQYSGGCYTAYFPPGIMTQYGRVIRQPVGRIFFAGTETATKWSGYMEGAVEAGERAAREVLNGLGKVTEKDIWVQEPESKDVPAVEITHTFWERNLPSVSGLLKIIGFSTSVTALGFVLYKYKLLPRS
Experimental: as §1

human NOX1 = target: T3, human NOX1 (Homo sapiens, UniProt Q9Y5S8); assay: Human NOX1 isolated membranes, Amplex Red/horseradish peroxidase coupled assay; format: biochemical; conditions: membrane-embedded, 40 μM NADPH; for IC50: read-out: IC50 on human NOXs, NOX1 (AMPLEX RED)
T3 construct: expressed in transfected cells; host or cells: HEK293 F cells, transient transfection (pEG BacMam vector); isolated membranes; Cytosolic proteins made in E. coli
T3 sequence (Q9Y5S8 1-564): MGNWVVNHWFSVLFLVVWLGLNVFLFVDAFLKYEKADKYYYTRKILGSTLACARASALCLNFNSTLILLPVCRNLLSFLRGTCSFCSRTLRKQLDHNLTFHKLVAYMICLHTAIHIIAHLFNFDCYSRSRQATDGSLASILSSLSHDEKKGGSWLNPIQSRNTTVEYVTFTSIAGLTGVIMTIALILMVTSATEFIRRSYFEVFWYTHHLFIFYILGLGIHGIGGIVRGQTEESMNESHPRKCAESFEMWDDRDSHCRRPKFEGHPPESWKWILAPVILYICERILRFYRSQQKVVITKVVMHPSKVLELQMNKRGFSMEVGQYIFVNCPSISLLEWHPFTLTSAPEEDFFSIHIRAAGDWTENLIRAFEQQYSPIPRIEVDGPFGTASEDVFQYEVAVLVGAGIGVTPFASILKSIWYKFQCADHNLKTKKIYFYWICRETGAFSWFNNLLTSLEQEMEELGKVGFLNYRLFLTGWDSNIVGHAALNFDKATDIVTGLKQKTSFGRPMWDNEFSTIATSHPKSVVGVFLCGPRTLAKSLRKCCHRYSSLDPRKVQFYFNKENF
T3 sequence (P13498 1-195 partner): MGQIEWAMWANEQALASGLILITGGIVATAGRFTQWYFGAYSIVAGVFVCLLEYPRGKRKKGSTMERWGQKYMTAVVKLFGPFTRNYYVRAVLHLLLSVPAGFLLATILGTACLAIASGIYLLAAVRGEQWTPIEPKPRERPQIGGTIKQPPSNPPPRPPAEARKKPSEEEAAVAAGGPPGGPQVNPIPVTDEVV
Experimental: Activity assays for IC50 determinations were performed as previously described[40],[42] with modifications for covalent inhibitors. […] The estimated final protein concentrations based on the heme’s absorbance (ε414 nm = 131,000 M^–1 cm^–1) were 10–20 nM. Compounds were incubated for 1 h at 25 °C at varying concentrations, and reactions were initiated with 40 μM NADPH. Fluorescence was measured using a ClarioStar plate reader (excitation 572 nm/emission 583 nm).

NOX2 = NOX2 (Homo sapiens, UniProt P04839); assay: In cellulo NOX2 activity in NOX2-overexpressing PLB-985 cells, cytochrome c reduction; format: cell-based; design: NOX2 was expressed as native protein in X-CGD PLB-985 cells transduced with the RD114 pseudotyped MFGS-NOX2 vector; expressed in transfected cells; host or cells: X-CGD PLB-985 cells transduced with MFGS-NOX2 vector; conditions: for IC50: intact PMA-stimulated cells, cytochrome c 200 μM
Experimental: Measurement of human NOX2 activity in cells was performed by a cytochrome c (200 μM) reduction assay. Superoxide production of intact PLB-985 cells (3 × 10^5 cells) was measured after PMA stimulation (5 μM) as reported.[40],[42] The compounds (0.04–40 μM) were added to the prestimulated cells and incubated for 1 h at 37 °C and 5% CO2, 120 rpm (New Brunswick S41i incubator shaker, Eppendorf). The absorbance at 550 nm was followed at 37 °C over a time course of 20 min in a ClarioStar plate reader (BMG Labtech).

Chain of NOX2 (P04839 2-570 limits assumed, one chain of several): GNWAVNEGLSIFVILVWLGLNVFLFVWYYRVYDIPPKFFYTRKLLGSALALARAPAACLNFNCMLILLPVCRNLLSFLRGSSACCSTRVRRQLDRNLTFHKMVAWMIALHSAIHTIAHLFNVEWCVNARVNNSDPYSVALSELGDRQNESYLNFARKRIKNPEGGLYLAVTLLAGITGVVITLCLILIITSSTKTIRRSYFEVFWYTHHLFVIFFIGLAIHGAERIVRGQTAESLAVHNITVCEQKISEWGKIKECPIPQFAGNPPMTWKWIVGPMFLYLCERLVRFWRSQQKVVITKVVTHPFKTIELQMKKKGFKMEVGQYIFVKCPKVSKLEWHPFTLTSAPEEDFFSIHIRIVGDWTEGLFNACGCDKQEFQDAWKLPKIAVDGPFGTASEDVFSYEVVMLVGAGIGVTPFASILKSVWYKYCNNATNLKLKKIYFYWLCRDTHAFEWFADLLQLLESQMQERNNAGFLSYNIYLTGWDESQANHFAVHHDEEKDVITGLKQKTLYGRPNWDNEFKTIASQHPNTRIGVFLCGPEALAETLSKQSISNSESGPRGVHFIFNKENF
Chain of NOX2 (P19878 whole entry partner, one chain of several): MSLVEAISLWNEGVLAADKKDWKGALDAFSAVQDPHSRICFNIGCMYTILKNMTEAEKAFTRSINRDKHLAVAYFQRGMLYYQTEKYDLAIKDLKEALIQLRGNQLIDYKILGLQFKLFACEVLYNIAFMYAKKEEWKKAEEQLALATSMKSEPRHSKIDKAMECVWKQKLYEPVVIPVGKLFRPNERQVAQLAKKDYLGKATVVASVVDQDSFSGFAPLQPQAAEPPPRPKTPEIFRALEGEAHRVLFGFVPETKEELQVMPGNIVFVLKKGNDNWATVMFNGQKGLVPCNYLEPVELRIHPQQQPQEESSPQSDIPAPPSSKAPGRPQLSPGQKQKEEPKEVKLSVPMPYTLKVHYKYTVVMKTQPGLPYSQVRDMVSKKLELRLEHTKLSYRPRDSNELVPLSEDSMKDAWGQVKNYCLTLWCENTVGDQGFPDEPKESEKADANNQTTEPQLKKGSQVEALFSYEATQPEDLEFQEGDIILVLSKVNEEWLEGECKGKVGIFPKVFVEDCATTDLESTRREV
Chain of NOX2 (P14598 whole entry partner, one chain of several): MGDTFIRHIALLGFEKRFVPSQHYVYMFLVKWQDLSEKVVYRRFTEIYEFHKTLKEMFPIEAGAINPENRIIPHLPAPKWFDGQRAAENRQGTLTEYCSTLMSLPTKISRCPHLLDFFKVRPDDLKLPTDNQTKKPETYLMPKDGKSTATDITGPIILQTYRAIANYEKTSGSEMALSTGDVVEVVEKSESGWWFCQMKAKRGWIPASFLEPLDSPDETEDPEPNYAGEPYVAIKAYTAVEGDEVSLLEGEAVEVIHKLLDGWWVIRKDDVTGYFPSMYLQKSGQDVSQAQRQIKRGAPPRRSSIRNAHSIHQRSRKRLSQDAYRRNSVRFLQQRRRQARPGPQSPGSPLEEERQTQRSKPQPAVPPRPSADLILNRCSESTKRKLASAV

Structure (SMILES)	IC50 (human MAOB)	IC50 Purified MAOB (human MAOB)	IC50 (human MAOA)	IC50 Purified MAOA (human MAOA)	IC50 (human NOX1)	IC50 (NOX2)	IC50 on human NOXs, NOX1 (AMPLEX RED) (human NOX1)	MAOB inhibition relative to rasagiline (weaker) (human MAOB)	potency against NOX2 in cellulo relative to VAS2870 (more potent) (NOX2; PLB-985 cells)
CCCNC(=O)c1ccc(Cn2nnc3c(Sc4nc5ccccc5o4)ncnc32)cc1 [Compound 8a, (4-((7-Benzo[d]oxazol-2-yl-thio)-3H-[1,2,3]triazole[4,5-d]pyrimidin-3-yl)methyl)-N-(propyl)benzamide]	> 100 µM	ineffective; also recorded: Not detected	> 100 µM	ineffective; also recorded: Not detected	32.9 ± 2.9 µM	2.81 ± 0.88 µM	–	–	–
C#CCNC(=O)c1ccc(Cn2nnc3c(Sc4nc5ccccc5o4)ncnc32)cc1 [Compound 8b, (4-((7-Benzo[d]oxazol-2-yl-thio)-3H-[1,2,3]triazole[4,5-d]pyrimidin-3-yl)methyl)-N-(prop-2-in-1-yl)benzamide]	–	Inhibition^b	41.6 ± 3.7 µM	–	> 100 µM	17.6 ± 3.4 µM	inactive	–	–
C#CCN(C)Cc1ccc(Cn2nnc3c(Sc4nc5ccccc5o4)ncnc32)cc1 [Compound 9a, N-(4-((7-(Benzo[d]oxazol-2-ylthio)-3H-[1,2,3]triazolo[4,5-d]pyrimidin-3-yl)methyl)benzyl)-N-methylprop-2-yn-1-amine]	0.182 ± 0.1 µM	–	59 ± 5.9 µM	–	22 ± 6.7 µM	0.135 ± 0.02 µM	–	10 fold	2 fold
